This note sets out measurements from publication PMC5114273, “Activity of Scorpion Venom-Derived Antifungal Peptides against Planktonic Cells of Candida spp. and Cryptococcus neoformans and Candida albicans Biofilms” (Frontiers in Microbiology, 2016).

Converted amounts (≈) assume the structure as drawn. Ends that are not written are not given here.

Data set [1] has as its system C. albicans SC5314 biofilm. Description: Sessile MIC50 of C. albicans SC5314 biofilm (XTT reduction, supplement). In kind it is cell-based, Candida albicans. As for the experimental part:
Figure 2R. Difference between supernatant volume used for OD 490nm reading (50 and 80µL) using XTT
reduce assay. The experiments were performed four times independently. Statistical analyses: two-way
ANOVA test and Turkey pos-test (**** P ≤ 0,0001; *** P ≤ 0,001; ** P ≤ 0,01; * P ≤ 0,05).
Table 1R. Sessile Minimum Inhibitory Concentration 50% (SMIC50) of C. albicans SC5314
biofilm in response to Amphotericin B serially diluted from 0,01562 to 16 µg/mL.
(In general: Formazan colour is commonly taken as a measure of viable cells.)

Data set [2] deals with C. neoformans (H99 serotype A). In words: microbe, parasite or virus in culture. The note with it: Cryptococcus neoformans; RPMI-1640 pH 7.0, 10^4 cells/mL, 37°C, 48 h, shaking 200 rpm; at least three experiments; read-out: Minimum inhibitory concentration, C. neoformans (H99 serotype A). In kind it is cell-based, Cryptococcus neoformans var. grubii. The text has this: (§1) Candida albicans strain SC 5314 (ATCC MYA-2876) was provided by Dr. Joshua Nosanchuk (New York, NY, USA). C. glabrata ATCC 90030, C. parapsilosis ATCC 22019, and C. tropicalis ATCC 750 were provided by Dr. Érika Kioshima (Universidade Estadual de Maringá, Paraná, Brazil). C. neoformans var. grubii strain H99 (serotype A, ATCC 208821) was provided by Dr. John Perfect (Durham, NC, USA). C. neoformans var. neoformans B3501 (serotype D, ATCC 34873) was obtained from ATCC (Manassas, VA, USA). All strains were stored as frozen stocks in 35% glycerol at -80°C. Before each experiment, all Candida spp. strains were grown in Sabouraud’s dextrose broth overnight at 30°C with agitation. C. neoformans strains were grown in the same conditions for 24 h. Fungal cells were collected by centrifugation, washed three times in phosphate buffered saline (PBS) (137 mM NaCl, 2.7 mM KCl, 10 mM Na2HPO4, 2 mM KH2PO4) and inoculated in Roswell Park Memorial Institute (RPMI) 1640 medium supplemented with L-glutamine and buffered to pH 7.0 with 165 mM 3-(N-morpholino)propanesulfonic acid for experiments described below.
(§2) In vitro antifungal assays were performed according to broth microdilution susceptibility test from Clinical and Laboratory Standards Institute (CLSI) M27-A3 guidelines with some modifications. Briefly, twofold serial dilutions of each peptide were prepared in 96-well polystyrene microplates to a final volume of 50 μL. Amphotericin B (Amp B; A2942, Sigma-Aldrich), a known antifungal drug, was used as a positive control. Final concentrations of each peptide and Amp B ranged from 100 to 0.78 μM and 16 to 0.03 μg/mL, respectively, except in tests with C. glabrata and C. parapsilosis, where the final peptide concentration ranged from 400 to 0.78 μM. In each plate, wells were included without peptide as a growth control. Then, 50 μL of the adjusted inoculum in RPMI-1640 medium were added to each well to a final concentration of 2 × 10^3 cells/mL for Candida spp. and 10^4 cells/mL for C. neoformans strains. The plates were incubated at 37°C for 24 and 48 h, respectively. The strains of C. neoformans were also incubated with shaking (200 rpm). […] The experiments were performed at least three times on separate dates.

The test system of data set [3] is C. albicans SC 5314 mature biofilm. In words: C. albicans mature biofilm (XTT reduction). Conditions: at 2 μg/mL. The format is cell-based, Candida albicans. As for the experimental part: (§3) The effects of the peptides NDBP-4.23, ToAP1, ToAP2, and NDBP-5.7 on C. albicans biofilms were analyzed according to the protocol described by [Pierce et al. (2008)]. Briefly, C. albicans SC 5314 (10^6 cells/mL) was grown on 96-well polystyrene microplates and 4 h after seeding the peptides or Amp B were added to assess their effects on the first step of biofilm formation, the initial cell adherence. After 24 h of treatment, biofilm formation was measured by the metabolic assay based on the reduction of 2,3-bis-(2-methoxy-4-nitro-5-sulfophenyl)-2H-tetrazolium-5-carboxanilide (XTT). For the purpose of investigating effects of peptides on mature biofilms, the Candida cells were allowed to grow for 24 h prior to addition of the peptides or Amp B and the XTT assay was performed in the same way. All results were analyzed for statistical significance using analysis of variance (ANOVA) followed by Tukey post-test using GraphPad Prism 6 and expressed in terms of biofilm viability as XTT-readings percentage normalized by the control groups. Each compound was tested in triplicate and the experiments were performed at least twice on separate dates.

Data set [4] deals with C. parapsilosis (ATCC 22019). Description: microbe, parasite or virus in culture. Conditions: Lodderomyces parapsilosis, ATCC22019; RPMI-1640 pH 7.0, 2 × 10^3 cells/mL, 37°C, 24 h; peptides 400 to 0.78 μM; at least three experiments; read-out: Minimum inhibitory concentration, C. parapsilosis (ATCC 22019). The format is cell-based, Candida parapsilosis.
Text: as §1, §2

The test system of a further data set is C. tropicalis (ATCC 750). Description: microbe, parasite or virus in culture. The format is cell-based, Candida tropicalis. Conditions: Candida tropicalis, ATCC750; RPMI-1640 pH 7.0, 2 × 10^3 cells/mL, 37°C, 24 h; complete inhibition of visible growth; at least three experiments; read-out: Minimum inhibitory concentration, C. tropicalis (ATCC 750).
Text: as §1, §2

The test system of data set [5] is C. neoformans (B3501 serotype D). In words: microbe, parasite or virus in culture. Conditions: Cryptococcus neoformans; RPMI-1640 pH 7.0, 10^4 cells/mL, 37°C, 48 h, shaking 200 rpm; at least three experiments; read-out: Minimum inhibitory concentration, C. neoformans (B3501 serotype D). The format is cell-based, Cryptococcus neoformans var. neoformans.
Text: as §1, §2

The test system of another data set is C. glabrata (ATCC 90030). In words: microbe, parasite or virus in culture. Conditions: Nakaseomyces glabratus, ATCC90030; RPMI-1640 pH 7.0, 2 × 10^3 cells/mL, 37°C, 24 h; peptides 400 to 0.78 μM; at least three experiments; read-out: Minimum inhibitory concentration, C. glabrata (ATCC 90030). The format is cell-based, Candida glabrata.
Text: as §1, §2

For another data set, the system named is C. albicans (SC5314). Description: microbe, parasite or virus in culture. The format is cell-based, Candida albicans. Conditions: Candida albicans, SC5314; RPMI-1640 pH 7.0, 2 × 10^3 cells/mL, 37°C, 24 h; complete inhibition of visible growth; at least three experiments; read-out: Minimum inhibitory concentration, C. albicans (SC5314).
Text: as §1, §2

Data set [6] concerns C. albicans SC 5314 biofilm, initial cell adherence. In words: C. albicans biofilm, initial adherence (XTT reduction). The note with it: at 0.25 μg/mL. The format is cell-based, Candida albicans. As for the experimental part: as §3
The nature of data set [7]: Stability assays of native and modified peptide. In kind it is physicochemical. Conditions: non-modified versus modified peptide.
In data set [8] the test system is peritoneal macrophages of BALB/c mice. In words: Cytotoxic test using peritoneal macrophages (LDH release). In kind it is cell-based, mouse. The note with it: 24 h, threshold of acceptable cytotoxicity 50% viability, three independent experiments. How it is done:
BALB/c mice were injected with thioglycolate 72 h before peritoneal macrophages were harvested. They were diluted to a concentration of 10^6 cell/mL in RPMI-1640 supplemented with penicillin/streptomycin (100 U/mL, 100 µg/mL), 2 mM L-glutamine, 2 mM non-essential amino acids, 1 mM sodium pyruvate (all reagents from Sigma-Aldrich, St Louis, MO, USA) and 10% fetal bovine serum (FBS), and incubated in 96-well polystyrene microplates at 37°C, 5% CO2 for 24 h. The peptides were added then and cells were further incubated for 24 h as described previously ([Cruz et al., 2005]). Three independent experiments were performed. Cytotoxic activity was evaluated by the release of cytoplasmic enzyme lactate dehydrogenase due to cell lysis using the Cytotox kit (Promega). Briefly, at the end of the incubation period, supernatants were collected, the adhered cells were washed and the toxicity was determined according to the manufacturer’s protocol. The procedures were approved by the Ethics Committee on Animal Research of Institute of Biology (UnBDOC 52657/2011)/University of Brasília (UnB).
A general note: LDH leaks from cells whose membrane has failed.

On to `C[C@@H]1[C@H](O)[C@@H](C)/C=C/C=C/C=C/C=C/C=C/C=C/C=C/[C@H](O[C@@H]2O[C@H](C)[C@@H](O)[C@H](N)[C@@H]2O)C[C@@H]2O[C@](O)(C[C@@H](O)C[C@@H](O)[C@H](O)CC[C@@H](O)C[C@@H](O)CC(=O)O[C@H]1C)C[C@H](O)[C@H]2C(=O)O` [Amp B, Amphotericin B], for which the SMIC50 in data set [1] (4h biofilm, 50 µl supernatant read at OD 490nm) is listed as 0,08420 ug/mL; in [1] (4h biofilm, 80 µl supernatant read at OD 490nm), 0,06812 ug/mL; in data set [1] (24h biofilm, 50 µl supernatant read at OD 490nm) it was 0,1919 ug/mL; in data set [1] (24h biofilm, 80 µl supernatant read at OD 490nm) it was 0,1732 ug/mL; in data set [1] (48h biofilm, 50 µl supernatant read at OD 490nm), 0,2857 ug/mL; in data set [1] (48h biofilm, 80 µl supernatant read at OD 490nm) it was 0,2424 ug/mL. Further, the MIC in data set [2] is 0.27 µM (≈ 0.25 µg/mL); in data set [4], 2.16 µM (≈ 2 µg/mL); in the data set with C. tropicalis (ATCC 750), 2.16 µM (≈ 2 µg/mL); in data set [5], 0.135 µM (≈ 0.125 µg/mL); with C. glabrata (ATCC 90030), 1.08 µM (≈ 0.998 µg/mL); with C. albicans (SC5314) it was 1.08 µM (≈ 0.998 µg/mL). In addition, the “Reduction in biofilm viability, three-dimensional architecture” value in data set [3] is “at least 80%”. Further, the “Reduction in biofilm viability, initial adherence” value in data set [6] is reported as “at least 80%”.

Consider FFGTLFKLGSKLIPGVMKLFSKKKER [ToAP2], for which, in data set [7], the “Stability compared with the modified peptide” value is given as “lower stability”. For the same compound, the “Concentrations showing low cytotoxicity” value in [8] was “below 6.25 μM”.
